# In ChEMBL document CHEMBL3627631, “Inactivation of protein tyrosine phosphatases by dietary isothiocyanates” (Bioorg Med Chem Lett, 2015):
# Active and inactive are the calls of the source. The rule behind the calls is not given here.
# Legend:
# [1] = biological target: T1, Tyrosine-protein phosphatase non-receptor type 11 (Homo sapiens) (UniProt Q06124); assay: Inhibition of recombinant human SHP2 catalytic domain (246 to 527 amino acid residues) in Tris buffer using pNPP as substrate assessed as apparent second order rate constant after 10 mins
# T1 sequence (whole entry): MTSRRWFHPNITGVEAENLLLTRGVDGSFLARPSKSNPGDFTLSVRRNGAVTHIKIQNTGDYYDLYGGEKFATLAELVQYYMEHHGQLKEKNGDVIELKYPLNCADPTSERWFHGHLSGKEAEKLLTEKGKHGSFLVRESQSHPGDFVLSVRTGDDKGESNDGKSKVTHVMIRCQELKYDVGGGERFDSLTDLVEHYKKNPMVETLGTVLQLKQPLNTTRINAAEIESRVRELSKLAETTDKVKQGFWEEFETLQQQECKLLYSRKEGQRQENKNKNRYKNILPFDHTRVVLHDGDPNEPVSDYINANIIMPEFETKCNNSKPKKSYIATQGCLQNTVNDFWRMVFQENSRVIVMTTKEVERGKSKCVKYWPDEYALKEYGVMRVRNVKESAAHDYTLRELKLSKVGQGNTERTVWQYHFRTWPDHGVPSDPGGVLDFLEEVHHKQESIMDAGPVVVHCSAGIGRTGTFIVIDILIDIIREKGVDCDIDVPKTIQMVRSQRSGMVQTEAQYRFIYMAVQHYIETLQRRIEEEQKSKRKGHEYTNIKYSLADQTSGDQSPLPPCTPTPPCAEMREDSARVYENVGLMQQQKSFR
# [2] = biological target: T2, Tyrosine-protein phosphatase non-receptor type 1 (Homo sapiens) (UniProt P18031); assay: Reversible inhibition of recombinant human PTP1B catalytic domain (1 to 322 amino acid residues) in 3,3-dimethylglutarate buffer assessed as inactivation constant kr
# T2 sequence (whole entry): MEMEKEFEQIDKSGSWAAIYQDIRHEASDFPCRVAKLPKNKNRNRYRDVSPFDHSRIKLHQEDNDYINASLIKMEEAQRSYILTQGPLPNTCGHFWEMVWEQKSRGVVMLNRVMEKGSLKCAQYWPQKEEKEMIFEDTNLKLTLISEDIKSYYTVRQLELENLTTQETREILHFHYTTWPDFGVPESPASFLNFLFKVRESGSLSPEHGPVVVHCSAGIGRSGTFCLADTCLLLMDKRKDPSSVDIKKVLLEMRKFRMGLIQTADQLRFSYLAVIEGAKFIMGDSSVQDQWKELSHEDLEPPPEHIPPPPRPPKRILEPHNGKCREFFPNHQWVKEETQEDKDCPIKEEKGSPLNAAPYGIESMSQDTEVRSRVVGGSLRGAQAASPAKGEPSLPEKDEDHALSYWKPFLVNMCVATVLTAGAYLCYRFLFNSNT
# [3] = biological target: T1, Tyrosine-protein phosphatase non-receptor type 11 (Homo sapiens); assay: Inhibition of recombinant human SHP2 catalytic domain (246 to 527 amino acid residues) in 3,3-dimethylglutarate buffer using pNPP as substrate assessed as apparent second order rate constant after 10 mins
# [4] = biological target: T2, Tyrosine-protein phosphatase non-receptor type 1 (Homo sapiens); assay: Reversible inhibition of recombinant human PTP1B catalytic domain (1 to 322 amino acid residues) in 3,3-dimethylglutarate buffer assessed as inactivation constant kf
# [5] = biological target: T1, Tyrosine-protein phosphatase non-receptor type 11 (Homo sapiens); assay: Inhibition of recombinant human SHP2 catalytic domain (246 to 527 amino acid residues) in 3,3-dimethylglutarate buffer using pNPP as substrate assessed as p-nitrophenolate release by spectrophotometric analysis in presence of reversible, site-directed inhibitor phosphate, arsenate
# [6] = biological target: T2, Tyrosine-protein phosphatase non-receptor type 1 (Homo sapiens); assay: Reversible inhibition of recombinant human PTP1B catalytic domain (1 to 322 amino acid residues) measured for 3 hrs by gel filtration assay
# [7] = biological target: T2, Tyrosine-protein phosphatase non-receptor type 1 (Homo sapiens); assay: Reversible inhibition of recombinant human PTP1B catalytic domain (1 to 322 amino acid residues) in Tris buffer assessed as inactivation constant kr
# [8] = Chemical stability of the compound in Bis-Tris and Tris buffer containing DTPA, sodium acetate, Tween 80 at 500 uM at pH 7.0 at 30 degC incubated for 2.5 hrs prior to addition of PTP1B; assay type: physicochemical; conditions: pH 7, 2.5 h
# [9] = biological target: T2, Tyrosine-protein phosphatase non-receptor type 1 (Homo sapiens); assay: Inhibition of recombinant human PTP1B catalytic domain (1 to 322 amino acid residues) using pNPP as substrate assessed as p-nitrophenolate release at 500 uM incubated with first aliquot of enzyme for 2000 secs followed by addition of second aliquot of enzyme measured for 1500 secs by spectrophotometric analysis
# [10] = biological target: T2, Tyrosine-protein phosphatase non-receptor type 1 (Homo sapiens); assay: Inhibition of recombinant human PTP1B catalytic domain (1 to 322 amino acid residues) using pNPP as substrate assessed as p-nitrophenolate release at 200 uM after 10 mins by spectrophotometric analysis in presence of reversible, site-directed inhibitor phosphate, arsenate
# [11] = Chemical stability of the compound in 3,3-dimethylglutarate buffer containing DTPA, sodium acetate, Tween 80 at 500 uM at pH 7.0 at 30 degC incubated for 2.5 hrs prior to addition of PTP1B; assay type: physicochemical; conditions: pH 7, 2.5 h
# [12] = biological target: T2, Tyrosine-protein phosphatase non-receptor type 1 (Homo sapiens); assay: Inhibition of recombinant human PTP1B catalytic domain (1 to 322 amino acid residues) using pNPP as substrate assessed as p-nitrophenolate release after 10 mins by spectrophotometric analysis in presence of catalase, superoxide dismutase and mannitol
# [13] = biological target: T2, Tyrosine-protein phosphatase non-receptor type 1 (Homo sapiens); assay: Reversible inhibition of recombinant human PTP1B catalytic domain (1 to 322 amino acid residues) in Tris buffer assessed as inactivation constant kf
Compound,Kapp [1] [M⁻¹ s⁻¹],K [2],Kapp [3] [M⁻¹ s⁻¹],K [4] [M⁻¹ s⁻¹],inhibition [5],inhibition [6],K [7] [×10⁻⁴ /s],Stability [8],inhibition [9],inhibition [10],Stability [11],inhibition [12],K [13] [M⁻¹ s⁻¹]
C[S+]([O-])CCCCN=C=S (stereo not drawn),3.5,1.4 ×10⁻⁴ /s,3.7,2.4,inactive,–,–,–,–,–,–,–,–
C=CCN=C=S [ALLYL ISOTHIOCYANATE],16,8.3 ×10⁻⁵ /s,9,2.7,inactive,Active,2.3,Unstable,Active,inactive,Stable,Active,2.3
